Test [1] has as its target T1, RORγ-LBD (Homo sapiens, UniProt P51449).
T1 construct: made in house; host or cells: SF9 cells (baculovirus); used as diluted lysate
T1 sequence (P51449 269-508 limits assumed): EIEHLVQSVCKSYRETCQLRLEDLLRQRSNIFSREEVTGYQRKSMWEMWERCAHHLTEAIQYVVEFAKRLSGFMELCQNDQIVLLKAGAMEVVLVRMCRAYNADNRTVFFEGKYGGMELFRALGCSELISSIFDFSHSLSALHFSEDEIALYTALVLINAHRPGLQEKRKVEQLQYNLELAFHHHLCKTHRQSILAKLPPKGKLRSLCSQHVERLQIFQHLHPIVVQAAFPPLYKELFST
The experiment in a line: RORγ-Ligand Binding Domain (LBD) TR-FRET Assay. It counts as biochemical. The conditions noted are these: RORγ-LBD TR-FRET. The method, boiled down:
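SF9 lysate containing His-RORγ-LBD, ~3 nM final; coactivator peptide biotin-SRC1 LXXLL, 200 nM final; ursolic acid 2 μM final; DMSO 1% final; Tris pH 7.0 buffer with KCl, EDTA, DTT, BSA. TR-FRET format.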
Background: Time-resolved FRET reads energy transfer from a long-lived donor to a nearby acceptor.

Test [2] deals with T2, Gal4-RORγ-LBD (Homo sapiens, UniProt P51449).
T2 construct: expressed in transfected cells
T2 sequence (P51449 269-508 limits assumed): T1 sequence (P51449 269-508 limits assumed)
The experiment in a line: Gal4-RORγ Luciferase Reporter Assay in HEK-293T Cells. It counts as cell-based. As to conditions: HEK-293 cells, luciferase reporter, with ursolic acid. The method, boiled down: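 HEK-293 cells were co-transfected with Gal4-RORγ-LBD and a Gal4-luciferase reporter, then exposed overnight at 37 °C to compounds with […] ursolic acid present (0.2% DMSO). Luminescence was read with One-Glo after 10 min at RT, untreated signal was set as 100, and Max Response was taken as the upper plateau of a 4-parameter logistic fit.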
In general terms: In a reporter assay the amount or activity of a reporter protein is the signal.

As usually defined, the EC50 is the midpoint of the concentration-response curve. Turning to `CC/C(=C\c1ccc2c(c1)N(S(=O)(=O)c1cccc(C(F)(F)F)c1)C[C@H](CCC(=O)OC)O2)c1ccccc1Cl` [Example 35, Methyl (S,E)-3-(6-(2-(2-chlorophenyl)but-1-en-1-yl)-4-((3-(trifluoromethyl)phenyl)sulfonyl)-3,4-dihydro-2H-benzo[b][1,4]oxazin-2-yl)propanoate], the results for the EC50 in test [1] and in test [2] were < 500 nM and 500 to 5000 nM, respectively.
For `CC/C(=C\c1ccc2c(c1)N(S(=O)(=O)c1cccc(C(F)(F)F)c1)C[C@H](CCC(=O)O)O2)c1ccccc1` [Example 36C, (S,E)-3-(6-(2-phenylbut-1-en-1-yl)-4-((3-(trifluoromethyl)-phenyl)sulfonyl)-3,4-dihydro-2H-benzo[b][1,4]oxazin-2-yl)propanoic acid] the same measures were < 500 nM and 500 to 5000 nM.
`O=C(O)CC[C@H]1CN(S(=O)(=O)c2cccc(C(F)(F)F)c2)c2cc(/C=C3\CCCc4ccccc43)ccc2O1` [Example 37, (S,E)-3-(6-((3,4-Dihydronaphthalen-1(2H)-ylidene)methyl)-4-((3-(trifluoromethyl)phenyl)sulfonyl)-3,4-dihydro-2H-benzo[b][1,4]oxazin-2-yl)propanoic acid]: the EC50 in test [1] and in test [2] was < 500 nM throughout.
With `COC(=O)CC[C@H]1CN(S(=O)(=O)c2cccc(C(F)(F)F)c2)c2cc(/C=C3\CCOc4ccccc43)ccc2O1` [Example 38A, methyl (S,E)-3-(6-(chroman-4-ylidenemethyl)-4-((3-(trifluoromethyl)phenyl)sulfonyl)-3,4-dihydro-2H-benzo[b][1,4]oxazin-2-yl)propanoate], the EC50 in test [1] was < 500 nM; in test [2], 500 to 5000 nM.
As to `O=C(O)CC[C@H]1CN(S(=O)(=O)c2cccc(C(F)(F)F)c2)c2cc(/C=C3\CCOc4ccccc43)ccc2O1` [Example 38B, (S,E)-3-(6-(chroman-4-ylidenemethyl)-4-((3-(trifluoromethyl)-phenyl)sulfonyl)-3,4-dihydro-2H-benzo[b][1,4]oxazin-2-yl)propanoic acid], the EC50 in test [1] was < 500 nM; in test [2], 500 to 5000 nM.
Consider `COC(=O)CC[C@H]1CN(S(=O)(=O)c2cccc(C(F)(F)F)c2)c2cc(/C=C(\C)c3c(F)cccc3Cl)c(F)cc2O1` [Example 41, (S,E)-Methyl 3-(6-(2-(2-chloro-6-fluorophenyl)prop-1-en-1-yl)-7-fluoro-4-((3-(trifluoromethyl)phenyl)sulfonyl)-3,4-dihydro-2H-benzo[b][1,4]oxazin-2-yl)propanoate], for which the EC50 in test [1] and in test [2] was < 500 nM in each case.
`C/C(=C\c1cc2c(cc1F)O[C@@H](CCC(=O)O)CN2S(=O)(=O)c1cccc(C(F)(F)F)c1)c1c(F)cccc1Cl` [Example 42, (S,E)-3-(6-(2-(2-Chloro-6-fluorophenyl)prop-1-en-1-yl)-7-fluoro-4-((3-(trifluoromethyl)phenyl)sulfonyl)-3,4-dihydro-2H-benzo[b][1,4]oxazin-2-yl)propanoic acid]: the EC50 in test [1] was < 500 nM; in test [2], 500 to 5000 nM.
For `COC(=O)CC[C@H]1CN(S(=O)(=O)c2cccc(OC(F)F)c2)c2cc(/C=C(\C)c3c(F)cccc3Cl)c(F)cc2O1` [Example 43, (S,E)-Methyl 3-(6-(2-(2-chloro-6-fluorophenyl)prop-1-en-1-yl)-4-((3-(difluoromethoxy)phenyl)sulfonyl)-7-fluoro-3,4-dihydro-2H-benzo[b][1,4]oxazin-2-yl)propanoate] the same measures were < 500 nM and < 500 nM.
Consider `C/C(=C\c1cc2c(cc1F)O[C@@H](CCC(=O)O)CN2S(=O)(=O)c1cccc(OC(F)F)c1)c1c(F)cccc1Cl` [Example 44, (S,E)-3-(6-(2-(2-Chloro-6-fluorophenyl)prop-1-en-1-yl)-4-((3-(difluoromethoxy)phenyl)sulfonyl)-7-fluoro-3,4-dihydro-2H-benzo[b][1,4]oxazin-2-yl)propanoic acid], for which the EC50 was < 500 nM in test [1] and 500 to 5000 nM in test [2].
Regarding `COC(=O)CC[C@H]1CN(S(=O)(=O)c2cccc(C(F)(F)F)c2)c2cc(/C=C(\C)c3c(F)cccc3Cl)c(Cl)cc2O1` [Example 45, (S,E)-Methyl 3-(7-chloro-6-(2-(2-chloro-6-fluorophenyl)prop-1-en-1-yl)-4-((3-(trifluoromethyl)phenyl)sulfonyl)-3,4-dihydro-2H-benzo[b][1,4]oxazin-2-yl)propanoate], the EC50 in test [1] is < 500 nM; in test [2], 500 to 5000 nM.
The corresponding values for `C/C(=C\c1cc2c(cc1Cl)O[C@@H](CCC(=O)O)CN2S(=O)(=O)c1cccc(C(F)(F)F)c1)c1c(F)cccc1Cl` [Example 46, (S,E)-3-(7-Chloro-6-(2-(2-chloro-6-fluorophenyl)prop-1-en-1-yl)-4-((3-(trifluoromethyl)phenyl)sulfonyl)-3,4-dihydro-2H-benzo[b][1,4]oxazin-2-yl)propanoic acid] are < 500 nM and < 500 nM.
Regarding `COC(=O)CC[C@H]1CN(S(=O)(=O)c2cccc(OC(F)F)c2)c2cc(/C=C(\C)c3c(F)cccc3Cl)c(Cl)cc2O1` [Example 47, (S,E)-Methyl 3-(6-(2-(2-chloro-6-fluorophenyl)prop-1-en-1-yl)-4-((3-(difluoromethoxy)phenyl)sulfonyl)-7-chloro-3,4-dihydro-2H-benzo[b][1,4]oxazin-2-yl)propanoate], the EC50 is < 500 nM in test [1] and 5000 to 10000 nM in test [2].
On to `C/C(=C\c1cc2c(cc1Cl)O[C@@H](CCC(=O)O)CN2S(=O)(=O)c1cccc(OC(F)F)c1)c1c(F)cccc1Cl` [Example 48, (S,E)-3-(6-(2-(2-Chloro-6-fluorophenyl)prop-1-en-1-yl)-4-((3-(difluoromethoxy)phenyl)sulfonyl)-7-chloro-3,4-dihydro-2H-benzo[b][1,4]oxazin-2-yl)propanoate], for which the EC50 is 500 to 5000 nM in test [1] and < 500 nM in test [2].
For `COC(=O)CC[C@H]1CN(S(=O)(=O)c2cccc(C(F)(F)F)c2)c2cc(/C=C(\C)c3c(F)cccc3Cl)cc(F)c2O1` [Example 49, (S,E)-Methyl 3-(6-(2-(2-chloro-6-fluorophenyl)prop-1-en-1-yl)-8-fluoro-4-((3-(trifluoromethyl)phenyl)sulfonyl)-3,4-dihydro-2H-benzo[b][1,4]oxazin-2-yl)propanoate] the same measures were < 500 nM and 500 to 5000 nM.
The corresponding values for `C/C(=C\c1cc(F)c2c(c1)N(S(=O)(=O)c1cccc(C(F)(F)F)c1)C[C@H](CCC(=O)O)O2)c1c(F)cccc1Cl` [Example 50, (S,E)-3-(6-(2-(2-Chloro-6-fluorophenyl)prop-1-en-1-yl)-8-fluoro-4-((3-(trifluoromethyl)phenyl)sulfonyl)-3,4-dihydro-2H-benzo[b][1,4]oxazin-2-yl)propanoic acid] are < 500 nM and < 500 nM.
As for `COC(=O)CC[C@H]1CN(S(=O)(=O)c2cccc(OC(F)F)c2)c2cc(/C=C(\C)c3c(F)cccc3Cl)cc(F)c2O1` [Example 51, Methyl (S,E)-3-(6-(2-(2-chloro-6-fluorophenyl)prop-1-en-1-yl)-4-((3-(difluoromethoxy)phenyl)sulfonyl)-8-fluoro-3,4-dihydro-2H-benzo[b][1,4]oxazin-2-yl)propanoate], the EC50 in test [1] and in test [2] was < 500 nM each time.

The values are drawn from patent publication US9896441B2 (Lycera Corporation, priority 2014, dated 2018).
